In patent US10336761B2, “TGFβ receptor antagonist” (BRISTOL-MYERS SQUIBB COMPANY, priority 2015, dated 2019) one finds IC50 data, which are given here for 12 molecules.

The target in test [1] is GST tagged wild type TGFβR1 (Homo sapiens (Human), UniProt P36897). In words: HTRF probe-displacement assay, GST tagged wild type TGFβR1. Type of test: binding. As to conditions: GST tagged wild type proteins were used instead of HIS-tagged proteins. How it is done:
Compounds were dissolved at 10 mM in dimethylsulfoxide (DMSO) and evaluated at eleven concentrations. IC50 values were derived by non-linear regression analysis.
In general terms: In TR-FRET formats the signal depends on donor and acceptor labels being close together.

For a further test, the target named is HIS-TGFβR1 T204D (Homo sapiens (Human), UniProt P36897, T204D). In words: HTRF probe-displacement assay, HIS-TGFβR1 T204D. Type of test: binding. As to conditions: 1 hour at room temperature.
Chain of HIS-TGFβR1 T204D (P36897 34-503 T204D): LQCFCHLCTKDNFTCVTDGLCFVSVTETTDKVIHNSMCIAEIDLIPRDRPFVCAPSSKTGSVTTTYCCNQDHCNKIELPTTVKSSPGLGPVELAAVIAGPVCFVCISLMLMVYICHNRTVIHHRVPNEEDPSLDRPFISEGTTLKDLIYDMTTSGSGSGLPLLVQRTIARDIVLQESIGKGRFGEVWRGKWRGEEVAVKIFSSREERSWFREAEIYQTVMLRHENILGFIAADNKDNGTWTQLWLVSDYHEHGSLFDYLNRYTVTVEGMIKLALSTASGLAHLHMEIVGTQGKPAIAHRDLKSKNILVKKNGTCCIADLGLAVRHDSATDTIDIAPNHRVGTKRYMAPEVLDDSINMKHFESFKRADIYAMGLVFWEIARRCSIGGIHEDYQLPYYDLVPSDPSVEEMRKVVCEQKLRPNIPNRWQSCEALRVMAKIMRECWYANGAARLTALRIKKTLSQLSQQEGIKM

Chain of GST tagged wild type TGFβR1 (P36897 34-503): as the sequence (P36897 34-503 T204D) above, with D171T counted along it

By IC50 is commonly meant the midpoint of a concentration-inhibition curve. `Cc1ccnc(-c2nc(Nc3ccncc3F)c3cccn3n2)c1` [Example 62, 3-fluoro-N-[2-(4-methylpyridin-2-yl)pyrrolo[2,1-f][1,2,4]triazin-4-yl]pyridin-4-amine] showed an IC50 in test [1] of 1700 nM. Regarding `Cc1nc(-c2nc(Nc3ccncc3F)c3cccn3n2)ccc1F` [Example 74, 3-fluoro-N-[2-(5-fluoro-6-methylpyridin-2-yl)pyrrolo[2,1-f][1,2,4]triazin-4-yl]pyridin-4-amine], in test [1], the IC50 is 6.1 nM.

With `CN1CCN(Cc2ccn3nc(-c4cccc(C(F)F)n4)nc(Nc4ccncc4F)c23)CC1` [Example 122, N-{2-[6-(difluoromethyl)pyridin-2-yl]-5-[(4-methylpiperazin-1-yl)methyl]pyrrolo[2,1-f][1,2,4]triazin-4-yl}-3-fluoropyridin-4-amine], the IC50 in test [1] was found to be 6 nM. The same measure, in the same setting: the result for `O=C(NCCN1CCS(=O)(=O)CC1)c1cnccc1Nc1nc(-c2ccccn2)nn2cccc12` [Example 147, N-[2-(1,1-dioxo-1,4-thiomorpholin-4-yl)ethyl]-4-{[2-(pyridin-2-yl)pyrrolo[2,1-f][1,2,4]triazin-4-yl]amino}pyridine-3-carboxamide] reads 2600 nM. As for `N#CCCC(=O)Nc1cc(Nc2nc(-c3cccc(C(F)(F)F)n3)nn3cccc23)ccn1` [Example 338, 3-cyano-N-[4-({2-[6-(trifluoromethyl)pyridin-2-yl]pyrrolo[2,1-f][1,2,4]triazin-4-yl}amino)pyridin-2-yl]propanamide], the IC50 at HIS-TGFβR1 T204D was 0.79 nM.

The molecule `CC(=O)Nc1cc(Nc2nc(-c3cccc(F)n3)nn3cccc23)c(F)cn1` [Example 339, N-(5-fluoro-4-{[2-(6-fluoropyridin-2-yl)pyrrolo[2,1-f][1,2,4]triazin-4-yl]amino}pyridin-2-yl)acetamide] displayed an IC50 on HIS-TGFβR1 T204D of 3.3 nM. At HIS-TGFβR1 T204D, `O=C(CCN1CCC(O)CC1)Nc1cc(Nc2nc(-c3cccc(C(F)(F)F)n3)nn3cccc23)ccn1` [Example 340, 3-(4-hydroxypiperidin-1-yl)-N-[4-({2-[6-(trifluoromethyl)pyridin-2-yl]pyrrolo[2,1-f][1,2,4]triazin-4-yl}amino)pyridin-2-yl]propanamide] returned an IC50 of 1.2 nM. Still for that read-out and setting: the result for `O=C(CCN1CC(F)(F)C1)Nc1cc(Nc2nc(-c3cccc(C(F)(F)F)n3)nn3cccc23)ccn1` [Example 341, 3-(3,3-difluoroazetidin-1-yl)-N-[4-({2-[6-(trifluoromethyl)pyridin-2-yl]pyrrolo[2,1-f][1,2,4]triazin-4-yl}amino)pyridin-2-yl]propanamide] reads 2.7 nM; that for `CC(C)(C)C(=O)Nc1cc(Nc2nc(-c3cccc(C(F)(F)F)n3)nn3cccc23)ccn1` [Example 342, 2,2-dimethyl-N-[4-({2-[6-(trifluoromethyl)pyridin-2-yl]pyrrolo[2,1-f][1,2,4]triazin-4-yl}amino)pyridin-2-yl]propanamide], 160 nM.

`COCCC(=O)Nc1cc(Nc2nc(-c3cccc(C(F)(F)F)n3)nn3cccc23)ccn1` [Example 343, 3-methoxy-N-[4-({2-[6-(trifluoromethyl)pyridin-2-yl]pyrrolo[2,1-f][1,2,4]triazin-4-yl}amino)pyridin-2-yl]propanamide]: the 50% inhibitory concentration (IC50) on HIS-TGFβR1 T204D was 1.8 nM.

For the molecule `O=C(CC(F)(F)F)Nc1cc(Nc2nc(-c3cccc(C(F)(F)F)n3)nn3cccc23)ccn1` [Example 344, 3,3,3-trifluoro-N-[4-({2-[6-(trifluoromethyl)pyridin-2-yl]pyrrolo[2,1-f][1,2,4]triazin-4-yl}amino)pyridin-2-yl]propanamide], the IC50 at HIS-TGFβR1 T204D was found to be 5.1 nM. In the case of `Cc1nc(-c2nc(Nc3ccnc(NC(=O)C4CC4)c3)c3cccn3n2)ccc1F` [Example 345, N-(4-{[2-(5-fluoro-6-methylpyridin-2-yl)pyrrolo[2,1-f][1,2,4]triazin-4-yl]amino}pyridin-2-yl)cyclopropanecarboxamide], the IC50 on HIS-TGFβR1 T204D turned out to be 1.4 nM.
